Data taken from patent US20190321345A1, “GLUT4 Selective Inhibitors for Cancer Therapy” (Emory University, priority 2016, published 2019).

What was measured:
Type in all cases: cell-based
KMS11-GFP cells = experiment: Proliferation of KMS11-GFP myeloma cells (Cell Titre Glo); details: for EC50: inhibition of proliferation, 72 hours, Cell Titre Glo; for impact on proliferation in KMS11-GFP cells compared with KMS11-GLUT1 cells: isogenic cell line pair
Experimental: (§1) IC50 studies were performed using the CellTiter-Glo assay (Promega, Madison, Wis.). 20,000 cells in 100 ul complete RPMI 1640 medium were plated per well in 96-well plates, with a concentration range of individual compounds. After 72 h incubation, 100 uL Glo reagent were added to each well and luminescence was measured using a Biotek Synergy 4 multimode plate reader. Cell number was assessed by trypan blue standing and an automatic cell counter (Biorad). For cell viability assays 0.125×10^6 cells/mL were treated with the indicated concentration of drug, washed with 1×PBS and evaluated for viability by AnnexinV/DAPI staining and flow cytometry. Data analysis was per-formed with the FCS express version 3 (De Novo software, Los Angeles).
(§2) Compound were selected as a lead based on its low IC50, selectivity for inhibition of glucose transport through GLUT4, and inhibition of the KMS11-GFP cell line proliferation in contrast to the GLUT1 expressing isogenic line. Compounds were assessed in a high-throughput proliferation-based assay using an isogenic MM (KMS11) cell line pair overexpressing GLUT1 or GFP (as a control) (model of screen is depicted in FIG. 2A). […] Isogenic KMS11-GFP/GLUT1 overexpressing myeloma cell lines were treated with a dose range of the indicated test compound for 72 hours followed by evaluation of viable cell number by Cell Titre Glo assay

KMS11-GLUT1 cells = experiment: Proliferation of KMS11-GLUT1 myeloma cells (Cell Titre Glo); details: inhibition of proliferation, 72 hours
Experimental: as §1, §2

GLUT4 = target: T1, GLUT4 (Homo sapiens, UniProt P14672); experiment: 2-DOG transport in HEK293 cells over-expressing GLUT4; details: pre-treated 5 minutes, 2-DOG uptake 4 min; cells lacking GLUT1; read-out: IC50 (inhibition of 2-DOG transport in HEK cells over-expressing GLUT isoforms) GLUT4
T1 construct: expressed in transfected cells; host or cells: HEK293 stably expressing GLUT1 shRNA
T1 sequence (P14672 1-509): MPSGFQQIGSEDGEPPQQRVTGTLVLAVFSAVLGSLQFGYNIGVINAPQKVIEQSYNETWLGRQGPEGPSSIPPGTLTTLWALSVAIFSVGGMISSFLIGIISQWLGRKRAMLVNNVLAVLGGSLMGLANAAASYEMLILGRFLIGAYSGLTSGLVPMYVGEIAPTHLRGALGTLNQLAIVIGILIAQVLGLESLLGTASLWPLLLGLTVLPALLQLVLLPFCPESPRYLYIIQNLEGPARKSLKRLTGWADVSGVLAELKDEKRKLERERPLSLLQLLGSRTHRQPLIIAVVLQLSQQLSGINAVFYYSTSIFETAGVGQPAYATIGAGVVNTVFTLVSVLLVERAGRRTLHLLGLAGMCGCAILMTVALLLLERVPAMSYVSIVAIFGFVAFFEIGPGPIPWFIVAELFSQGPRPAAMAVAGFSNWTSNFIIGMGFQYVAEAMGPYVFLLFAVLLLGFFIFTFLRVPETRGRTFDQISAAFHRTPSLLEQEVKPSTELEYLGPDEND
Experimental: (§3) Tissue culture plates were pretreated with 25 μg/ml polyethyleneimine (Fluka, catalogue number P3143) in 150 mM NaCl for 20min to let cells adhere. JNN3 cells were subsequently plated and grown to 40-60% confluency in complete RPMI 1640 medium. HEK293 GLUT overexpressing cells were plated at 400,000 cells/ml overnight. Cells were then washed with glucose-free HEPES buffer twice and starved for 30 min. The uptake of 2-[^3H] deoxy-D-glucose (2-DOG) (50 μM) was measured in glucose-free HEPES buffer for 4-6 min at 37° C. Compound 20 (20 μM) was added 5-6 min prior to the addition of glucose depending on the specific assay. For the HEK293 GLUT overexpressing cells, non-specific uptake was measured in non-transfected HEK293 cells containing the shRNA GLUT1 knockdown and was subtracted from the experimental values. Data are plotted as percent uptake relative to unexposed HEK293 cultures. Data were normalized to fit by nonlinear regression analysis using GraphPad Prism software.
(§4) Compound 20 was further screened for GLUT4 selectivity by evaluating inhibition of glucose transport in HEK 293 cells exogenously over-expressing human GLUTs-1, -2, -3, -4, or -8 that also stably express GLUT1 shRNA (except the GLUT1 overexpressing cell line) to knock down endogenous GLUT1.
(§5) Glucose transport in HEK293 cells over-expressing GLUT1 or over-expressing GLUT4 or GLUT8 in cells lacking GLUT1 were used to evaluate inhibition of glucose transport. Cells were pre-treated with compound for 5 minutes followed by evaluation of 22-DOG uptake for 4 min at 370 C. Non-specific uptake was measured in nontransfected HEK293 cells containing the shRNA GLUT1 knockdown and was subtracted from the experimental values.

GLUT8 = target: T2, GLUT8 (Homo sapiens, UniProt Q9NY64); experiment: 2-DOG transport in HEK293 cells over-expressing GLUT8; details: pre-treated 5 minutes, 2-DOG uptake 4 min; cells lacking GLUT1; read-out: IC50 (inhibition of 2-DOG transport in HEK cells over-expressing GLUT isoforms) GLUT8
T2 construct: expressed in transfected cells; host or cells: HEK293 stably expressing GLUT1 shRNA
T2 sequence (Q9NY64 1-477): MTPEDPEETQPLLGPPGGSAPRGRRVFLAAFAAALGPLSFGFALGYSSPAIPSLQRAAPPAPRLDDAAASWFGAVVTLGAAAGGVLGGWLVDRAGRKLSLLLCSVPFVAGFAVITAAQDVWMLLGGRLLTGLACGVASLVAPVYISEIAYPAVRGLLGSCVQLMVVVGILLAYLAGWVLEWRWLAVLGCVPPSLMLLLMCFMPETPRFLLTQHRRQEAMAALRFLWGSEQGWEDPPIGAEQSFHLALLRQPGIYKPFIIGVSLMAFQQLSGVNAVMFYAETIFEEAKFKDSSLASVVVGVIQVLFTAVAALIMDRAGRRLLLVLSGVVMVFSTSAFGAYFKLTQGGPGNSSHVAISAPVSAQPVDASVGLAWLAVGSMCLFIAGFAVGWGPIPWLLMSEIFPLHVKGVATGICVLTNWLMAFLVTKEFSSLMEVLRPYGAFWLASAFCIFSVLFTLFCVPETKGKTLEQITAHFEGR
Experimental: as §3, §4, §5

GLUT1 = target: T3, GLUT1 (Homo sapiens, UniProt P11166); experiment: 2-DOG transport in HEK293 cells over-expressing GLUT1; details: pre-treated 5 minutes, 2-DOG uptake 4 min; read-out: IC50 (inhibition of 2-DOG transport in HEK cells over-expressing GLUT isoforms) GLUT1
T3 construct: expressed in transfected cells; host or cells: HEK293
T3 sequence (P11166 1-492): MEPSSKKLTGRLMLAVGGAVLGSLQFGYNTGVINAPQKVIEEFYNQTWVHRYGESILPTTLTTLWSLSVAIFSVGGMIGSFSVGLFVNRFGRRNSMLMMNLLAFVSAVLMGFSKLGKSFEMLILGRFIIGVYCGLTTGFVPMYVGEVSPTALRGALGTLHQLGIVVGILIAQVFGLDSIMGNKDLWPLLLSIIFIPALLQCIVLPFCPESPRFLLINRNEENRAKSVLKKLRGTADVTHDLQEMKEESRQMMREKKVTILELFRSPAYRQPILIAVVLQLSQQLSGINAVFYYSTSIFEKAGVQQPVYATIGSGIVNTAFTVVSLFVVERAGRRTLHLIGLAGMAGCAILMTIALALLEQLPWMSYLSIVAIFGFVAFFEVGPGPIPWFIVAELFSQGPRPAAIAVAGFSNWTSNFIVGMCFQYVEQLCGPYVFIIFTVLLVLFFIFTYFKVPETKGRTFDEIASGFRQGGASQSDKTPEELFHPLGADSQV
Experimental: as §3, with “software. […]” for “software.”
as §5, with “Cells were pre-treated with compound for 5 minutes followed by evaluation of 22-DOG uptake for 4 min at 370 C.” left out

| SMILES | EC50 (KMS11-GFP cells) [µM] | EC50 (KMS11-GLUT1 cells) [µM] | IC50 (GLUT4) [µM] | IC50 (GLUT8) [µM] | IC50 (GLUT1) [µM] | impact on proliferation in KMS11-GFP cells compared with KMS11-GLUT1 cells (KMS11-GFP cells) |
| --- | --- | --- | --- | --- | --- | --- |
| O=C(c1ccc(Cl)cc1)N(Cc1ccncc1)Cc1cccc(OCCc2ccc(F)cc2)c1 [Compound 19, 4-Chloro-N-(3-(4-fluorophenethoxy)benzyl)-N-(pyridin-4-ylmethyl)benzamide] | 13.1 | 15.6 |  |  |  |  |
| COc1ccc(C(=O)N(Cc2ccncc2)Cc2cccc(OCc3ccc(F)cc3)c2)cc1 [Compound 16, N-(3-((4-fluorobenzyl)oxy)benzyl)-4-methoxy-N-(pyridin-4-ylmethyl)benzamide] | 22.7 | 28.6 |  |  |  |  |
| COc1ccc(C(=O)N(Cc2ccncc2)Cc2cccc(OCC3CCOCC3)c2)cc1 [Compound 9, 4-Methoxy-N-(pyridin-4-ylmethyl)-N-(3-((tetrahydro-2H-pyran-4-yl)methoxy)benzyl)benzamide] | 17.7 | 25.8 |  |  |  | greater impact on proliferation in KMS11-GFP cells |
| Oc1cccc(CNCc2ccncc2)c1 [Compound 3, reference compound] |  |  | 18.9 | > 100 | > 100 |  |
| COc1ccc(C(=O)N(Cc2ccncc2)Cc2cccc(OCC(=O)c3cccc(Br)c3)c2)cc1 [Compound 21, N-(3-(2-(3-bromophenyl)-2-oxoethoxy)benzyl)-4-methoxy-N-(pyridin-4-ylmethyl)benzamide] | 18.7 | 21.4 |  |  |  |  |
| COc1ccc(C(=O)N(Cc2ccncc2)Cc2cccc(OCc3cccc(OC)c3)c2)cc1 [Compound 17, 4-Methoxy-N-(3-((3-methoxybenzyl)oxy)benzyl)-N-(pyridin-4-ylmethyl)benzamide] | 16.9 | 28.5 | 10.8 | > 100 | > 100 | greater impact on proliferation in KMS11-GFP cells |
| COc1ccc(C(=O)N(Cc2ccncc2)Cc2cccc(OCCc3ccc(Br)cc3)c2)cc1 [Compound 13, N-(3-(4-bromophenethoxy)benzyl)-4-methoxy-N-(pyridin-4-ylmethyl)benzamide] | 8.4 | 6.5 |  |  |  |  |
| COc1ccc(C(=O)N(Cc2ccncc2)Cc2cccc(OCC3CCCCC3)c2)cc1 [Compound 12, N-(3-(cyclohexylmethoxy)benzyl)-4-methoxy-N-(pyridin-4-ylmethyl)benzamide] | 19.7 | 16 |  |  |  |  |
| COc1ccc(C(=O)N(Cc2ccncc2)Cc2cccc(OCC(=O)c3ccc(Cl)cc3)c2)cc1 [Compound 18, N-(3-(2-(4-chlorophenyl)-2-oxoethoxy)benzyl)-4-methoxy-N-(pyridin-4-ylmethyl)benzamide] | 18.5 | 16.9 |  |  |  |  |
| COc1ccc(C(=O)N(Cc2ccncc2)Cc2cccc(OCC3CCN(C(=O)OC(C)(C)C)CC3)c2)cc1 [Compound 11, Tert-butyl 4-((3-((4-methoxy-N-(pyridin-4-ylmethyl)benzamido)methyl)phenoxy)methyl)piperidine-1-carboxylate] | 5.1 | 4.9 |  |  |  |  |

More lines, main results first:

| EC50 (KMS11-GFP cells) [µM] | EC50 (KMS11-GLUT1 cells) [µM] | IC50 (GLUT4) [µM] | IC50 (GLUT8) [µM] | IC50 (GLUT1) [µM] | SMILES | impact on proliferation in KMS11-GFP cells compared with KMS11-GLUT1 cells (KMS11-GFP cells) |
| --- | --- | --- | --- | --- | --- | --- |
| 9.1 | 12.7 |  |  |  | COc1ccc(C(=O)N(Cc2ccncc2)Cc2cccc(OCCc3ccc(C)cc3)c2)cc1 [Compound 7, 4-Methoxy-N-(3-(4-methylphenethoxy)benzyl)-N-(pyridin-4-ylmethyl)benzamide] |  |
| 8.9 | 15.1 |  |  |  | COc1ccc(C(=O)N(Cc2ccncc2)Cc2cccc(OCCc3cccc(C(F)(F)F)c3)c2)cc1 [Compound 8, 4-Methoxy-N-(pyridin-4-ylmethyl)-N-(3-(3-(trifluoromethyl)phenethoxy)benzyl)benzamide] | greater impact on proliferation in KMS11-GFP cells |
| 14.3 | 16.8 |  |  |  | COc1ccc(C(=O)N(Cc2ccncc2)Cc2cccc(OCc3ccc(C(F)(F)F)cc3)c2)cc1 [Compound 15] |  |
| 16.9 | 21 |  |  |  | COc1ccc(C(=O)N(Cc2ccncc2)Cc2cccc(OCCc3ccccc3)c2)cc1 [Compound 10, 4-Methoxy-N-(3-phenethoxybenzyl)-N-(pyridin-4-ylmethyl)benzamide] |  |
| 19.6 | 20.6 |  |  |  | COc1ccc(C(=O)N(Cc2ccncc2)Cc2cccc(OCc3cccc([N+](=O)[O-])c3)c2)cc1 [Compound 22, 4-Methoxy-N-(3-((3-nitrobenzyl)oxy)benzyl)-N-(pyridin-4-ylmethyl)benzamide] |  |
| 15.4 | 11.7 |  |  |  | COc1ccc(C(=O)N(Cc2ccncc2)Cc2cccc(OCc3ccc([N+](=O)[O-])cc3)c2)cc1 [Compound 14, 4-Methoxy-N-(3-((4-nitrobenzyl)oxy)benzyl)-N-(pyridin-4-ylmethyl)benzamide] |  |
